From patent US8119614B2, “Substitution derivatives of N6-benzyladenosine, methods of their preparation, their use for preparation of drugs, cosmetic preparations and growth regulators, pharmaceutical preparations, cosmetic preparations and growth regulators containing these compounds” (Ustav Experimentalni Botaniky Akademie Ved Ceske Republiky, priority 2002, dated 2012)

Key:
[1] = test system: Human lymphocytes; experiment: Immunosuppressive activity: concanavalin A induced lymphocyte proliferation, [^3H]-TdR incorporation; format: cell-based; conditions: 72 hours, read-out: Human lymphocytes ED50
Method: Human heparinized peripheral blood was obtained from healthy volunteers by cubital vein punction. The blood was diluted in PBS (1:3) and mononuclear cells were separated by centrifugation in Ficoll-Hypaque density gradient (Pharmacia, 1.077 g/ml) at 2200 rpm for 30 minutes. Following centrifugation, lymphocytes were washed in PBS and resuspended in cell culture medium (RMPI 1640, 2 mM glutamine, 100 U/ml penicillin, 100 μg/ml streptomycin, 10% fetal calf serum and sodium bicarbonate).
The cells were diluted at target density of 1,100,000 cells/ml were added by pipette (180 μl) into 96/well microtiter plates. Four-fold dilutions of the intended test concentration were added at time zero in 20 μl aliquots to the microtiter plate wells. Usually, test compound was evaluated at six 4-fold dilutions. In routine testing, the highest well concentration was 266.7 μM. All drug concentrations were examined in duplicates. All wells with exception of unstimulated controls were activated with 50 μl of concanavalin A (25 μg/ml). Incubations of cells with test compounds lasted for 72 hours at 37° C., in 5% CO2 atmosphere and 100% humidity. At the end of incubation period, the cells were assayed by using the [^3H]-TdR:
Cell cultures were incubated with 0.5 μCi (20 μl of stock solution 500 μCi/ml) per well for 6 hours at 37° C. and 5% CO2. The automated cell harvester was used to lyse cells in water and adsorb the DNA onto glass-fiber filters in the format of microtiter plate. The DNA incorporated [^3H]-TdR was retained on the filter while unincorporated material passes through. The filters were dried at room temperature overnight, sealed into a sample bag with 10-12 ml of scintillant. The amount of [^3H]-TdR present in each filter (in cpm) was determined by scintillation counting in a Betaplate liquid scintillation counter. The effective dose of immunosuppressant (ED) was calculated using the following equation: ED=(CCPMdrug exposed well/mean CCPMcontrol wells)×100%. The ED50 value, the drug concentration inhibiting proliferation of 50% of lymphocytes, was calculated from the obtained dose response curves.

[2] = test system: tobacco callus Nicotiana tabacum L. cv. Wisconsin 38; experiment: Growth of cytokinin-dependent tobacco callus; format: cell-based; conditions: for Activity (%) [10^−5 mol · l^−1 BAP = 100%]: callus growth, at concentration with highest activity; for Concentration with highest activity: fresh callus weight after four weeks
[3] = test system: human diploid fibroblasts (HCA cells); experiment: Inhibition of senescence of mammal cells: β-galactosidase staining of senescent cells; format: cell-based; conditions: for Senescent cells (%) HCA25: passage 25; for Senescent cells (%) HCA45: passage 45; for Senescent cells (%) HCA80: passage 80
Method: In this example, human diploid fibroblasts (HCA cells with different levels of passage: passage 25—labelling HCA25; passage 45—labelling HCA45; passage 80—labelling HCA80) were used for studying β-galactosidase activity. Medium used for cells cultivation was removed, cells were washed twice with PBS and fixed in 2-3 ml of fixation agent consisting of 2% of formaldehyde and 0.2% of flutaraldehyde in PBS. Cells were incubated at room temperature for 5 min and subsequently washed twice with PBS. Cells were then incubated at 37° C. (without CO2) for 1 to 16 hours in 2-3 ml of solution comprising potassium ferricyanide (5 mM), potassium ferrocyanide (5 mM), MgCl2 (2 mM), X-gal (5-bromo-4-chloro-3-indolyl-β-D-galactopyranoside) (1 mg/ml) in citrate/phosphate buffer, pH 6.0. […] In this experiment only senescent cells were labelled due to the effect of β-galactosidase on the substrate.

[4] = test system: spring wheat (variety Sandra); experiment: Field studies: yield analysis of spring wheat crop; format: in vivo; conditions: spray of 10^−6 molar solution, Control = 100.0
Method: Crops (over the 4-year period) of spring wheat were sown in the experimental fields of Czech Agriculture University (CZU) (region of sugar beet production type) at a seeding rate of 400 germinative grains·m^−2 into ploughed and shoddy soil containing 116.1 mg/kg P, 228.3 mg/kg K, and 211.8 mg/kg Mg (agrochemical analyses were done at Department of Pedology CZU) (interval between ploughing and sowing is usually 3-4 days, longer only in case of adverse weather conditions). Preceding crop was rape. Soil preparation was done by the classical way using skid and harrow and after seeding is rolled.
(§1) Height of plants, leaf area, dry matter, development of vegetation opex—bases of future spike, and number of spikelets were monitored after germination in 14 day intervals, […]. From these primary data, values used in production physiology are derived, as leaf area index LAI, photosynthetic capacity LAD, tillering potential. Experiments with treatment of spring wheat crop (variety Sandra) are carried out on the field (area 10 m^2, four replicates) by spraying 1 litr of 10^−6 molar solution of tested compound (cytokinin) at the transition period from jointing stage to athesis stage (49 DC).
Yield analysis, evaluating spike lenght and seed number per spikelet (Σ Z/K) were carried out for 30 plant per each variant, yield from 1 m^2 and 1000 grain weight (HTS) was determined from 8 replicates, yield per ha was subsequently calculated.

[5] = test system: glutamate kinase; experiment: Field studies: glutamate kinase activity in spring wheat; format: in vivo; set-up: tested at 1 µM (10^-6 M spray solution); conditions: 6 days after the application, Control = 100.0
Method: as §1
Glutamate kinase activity was determined 6 days after the application. This enzyme was selected because of good corelation of its activity changes and state of transport of endogenous substances (nutrients from roots, assimilates to cariopsis), respiration, energy (adenosintriphosphate) transfer, storage of nutrients, growth and developmental proceses, and also metabolism of proline, which is known from literature to play an important role in adaptation against stress (unsuitable stand, drought, hypersalinity, coldness) and also in regulation of both theoretical and real production (restriction of seed number reduction per spikelet). Enzyme glutamate kinase catalyses to glutamate conversion into γ glutamylphosphate, which is first step of proline biosynthesis from glutamate. Therefore, this enzyme is, as essential precursor of other plant metabolic pathways, marker of stress inhibition. It can be determined spectrofotometrically (Vasáková, 1980). For analysis, acetone powder is prepared from a sample by standard method, subsequently extracted by 0.05M potassium-phosphate buffer pH=7.2 and centrifugated. Glutamate kinase fraction is precipitated using crystalline ammonium sulfate and after dialysis, glutamate kinase activity is determined spectrophotometrically. Proline accumulation increased by stress corresponds as a “feedback” to glutamate kinase inhibition.

For `OC[C@H]1O[C@@H](n2cnc3c(NCc4ccc(Cl)cc4)ncnc32)[C@H](O)[C@@H]1O` [4-chlorobenzylamino, 6-(4-chlorobenzylamino)purine riboside], the EC50 [1] was 3.9 µM, the “Activity (%) [10^−5 mol · l^−1 BAP = 100%]” value (from here on “Activity (%)”) [2] was 46 ± 14% and the “Concentration with highest activity” value [2] was 10^−6 mol · l^−1.

With `Cc1cccc(CNc2ncnc3c2ncn3[C@@H]2O[C@H](CO)[C@@H](O)[C@H]2O)c1` [3-methylbenzylamino, 6-(3-methylbenzylamino)purine riboside] the EC50 [1] was 6.5 µM, the “Activity (%)” value [2] was 90 ± 2% and the “Concentration with highest activity” value [2] was 10^−6 mol · l^−1.

Work on `COc1cccc(CNc2ncnc3c2ncn3[C@@H]2O[C@H](CO)[C@@H](O)[C@H]2O)c1O` [2-hydroxy-3-methoxybenzylamino, 6-(2-hydroxy-3-methoxybenzylamino)purine riboside] yielded an EC50 [1] of 1.4 µM.

`OC[C@H]1O[C@@H](n2cnc3c(NCc4ccccc4Cl)ncnc32)[C@H](O)[C@@H]1O` [2-chlorobenzylamino, 6-(2-chlorobenzylamino)purine riboside] was tested, and the EC50 [1] was 8.4 µM, the “Activity (%)” value [2] was 93 ± 4% and the “Concentration with highest activity” value [2] was 10^−6 mol · l^−1.

For `COc1cccc(CNc2ncnc3c2ncn3[C@@H]2O[C@H](CO)[C@@H](O)[C@H]2O)c1` [3-methoxybenzylamino, 6-(3-methoxybenzylamino)purine riboside], the “Senescent cells (%) HCA25” value [3] was 5%, the “Senescent cells (%) HCA45” value [3] was 6% and the “Senescent cells (%) HCA80” value [3] was 12%. The “Activity (%)” value [2] was 92 ± 1% and the “Concentration with highest activity” value [2] was 10^−6 mol · l^−1.

For `OC[C@H]1O[C@@H](n2cnc3c(NCc4ccccc4F)ncnc32)[C@H](O)[C@@H]1O` [2-fluorobenzylamino, 6-(2-fluorobenzylamino)purine riboside], the “Senescent cells (%) HCA25” value [3] was 4%, the “Senescent cells (%) HCA45” value [3] was 4% and the “Senescent cells (%) HCA80” value [3] was 15%. The EC50 [1] was 5.6 µM, the “Activity (%)” value [2] was 100 ± 9% and the “Concentration with highest activity” value [2] was 10^−6 mol · l^−1.

With `OC[C@H]1O[C@@H](n2cnc3c(NCc4ccc(F)cc4)ncnc32)[C@H](O)[C@@H]1O` [4-fluorobenzylamino, 6-(4-fluorobenzylamino)purine riboside] the EC50 [1] was 9.4 µM, the “Activity (%)” value [2] was 100 ± 6% and the “Concentration with highest activity” value [2] was 10^−6 mol · l^−1.

In the case of `OC[C@H]1O[C@@H](n2cnc3c(NCc4cccc(Cl)c4)ncnc32)[C@H](O)[C@@H]1O` [3-chlorobenzylamino, 6-(3-chlorobenzylamino)purine riboside], the EC50 [1] is reported as 2.5 µM, the “Activity (%)” value [2] is reported as 96 ± 5% and the “Concentration with highest activity” value [2] is reported as 10^−5 mol · l^−1. For the same compound, the “HTS (%) (1000 grain weight)” value [4] was 108.3%, the “Yield(%)” value [4] was 128.8% and the “Σ Z/K (%) (seed number per spikelet)” value [4] was 119.1%. The “Σ spike/m^2 (%)” value [4] was 100.5% and the “GK % (glutamate kinase activity)” value [5] was 124.7%.

In the case of `OC[C@H]1O[C@@H](n2cnc3c(NCc4ccc(Cl)c(Cl)c4)ncnc32)[C@H](O)[C@@H]1O` [3,4-dichlorobenzylamino, 6-(3,4-dichlorobenzylamino)purine riboside], the “HTS (%) (1000 grain weight)” value [4] is reported as 101.5%, the “Yield(%)” value [4] is reported as 113.3% and the “Σ Z/K (%) (seed number per spikelet)” value [4] is reported as 111.9%. For the same compound, the “Σ spike/m^2 (%)” value [4] was 99.7% and the “GK % (glutamate kinase activity)” value [5] was 114.2%.

With `OC[C@H]1O[C@@H](n2cnc3c(NCc4cccc(Br)c4)ncnc32)[C@H](O)[C@@H]1O` [3-bromobenzylamino, 6-(3-bromobenzylamino)purine riboside] the “Activity (%)” value [2] was 82 ± 11%, the “Concentration with highest activity” value [2] was 10^−6 mol · l^−1 and the “HTS (%) (1000 grain weight)” value [4] was 101.5%. For the same compound, the “Yield(%)” value [4] was 131.8%, the “Σ Z/K (%) (seed number per spikelet)” value [4] was 123.8% and the “Σ spike/m^2 (%)” value [4] was 104.9%. The “GK % (glutamate kinase activity)” value [5] was 116.6%.

`COc1ccccc1CNc1ncnc2c1ncn2[C@@H]1O[C@H](CO)[C@@H](O)[C@H]1O` [2-methoxybenzylamino, 6-(2-methoxybenzylamino)purine riboside] was tested, and the “Senescent cells (%) HCA25” value [3] was 4%, the “Senescent cells (%) HCA45” value [3] was 4% and the “Senescent cells (%) HCA80” value [3] was 16%. For the same compound, the “Activity (%)” value [2] was 108 ± 1% and the “Concentration with highest activity” value [2] was 10^−5 mol · l^−1.

`OC[C@H]1O[C@@H](n2cnc3c(NCc4cccc(F)c4)ncnc32)[C@H](O)[C@@H]1O` [3-fluorobenzylamino, 6-(3-fluorobenzylamino)purine riboside] was tested, and the “Senescent cells (%) HCA25” value [3] was 3%, the “Senescent cells (%) HCA45” value [3] was 5% and the “Senescent cells (%) HCA80” value [3] was 13%. For the same compound, the EC50 [1] was 7.1 µM, the “Activity (%)” value [2] was 91 ± 6% and the “Concentration with highest activity” value [2] was 10^−5 mol · l^−1.

`Cc1ccccc1CNc1ncnc2c1ncn2[C@@H]1O[C@H](CO)[C@@H](O)[C@H]1O` [2-methylbenzylamino, 6-(2-methylbenzylamino)purine riboside] was tested, and the EC50 [1] was 5.8 µM, the “Activity (%)” value [2] was 98 ± 4% and the “Concentration with highest activity” value [2] was 10^−6 mol · l^−1.
